In patent publication US9783518B2, “Therapeutic agent and treatment method for ameliorating uremia” (Toray Industries, Inc., priority 2005, dated 2017):
“Also recorded” adds a separate entry of the source.

How the values were obtained:
[1] = test system: rats which spontaneously develops hypertension; conditions: administered together with saline and special diet; cited from earlier work
healthy cats [2] = test: Observation of general clinical symptoms (adverse events) after administration of beraprost sodium to healthy cats; format: in vivo, cat; parameters: key to grade of adverse events (diarrhea, vomiting, sedation) / grade of adverse events (vomiting, diarrhea, sedation): no abnormality observed (Grade 0); slight (Grade 1); moderate (Grade 2); severe (Grade 3); conditions: for adverse events (clinical symptoms): 5 healthy cats
Experimental: (§1) In this study, 3 male cats and 2 female cats, totally 5 Japanese cats, aging 3 to 6 years old were used, which were raised in an animal hospital and for which no abnormalities were observed clinically and by blood test. The subject cats were individually placed in each cage in which each cat was allowed to take water ad libitum, and each cat was fed twice a day after measuring the necessary items. For the purpose of acclimatization, the cats were measured for blood pressure noninvasively twice a day for 2 weeks.
Observations of general clinical symptoms caused by administration of beraprost sodium to healthy cats were performed as follows: Whether adverse events such as ataxia, sedation, lying, suffusion of visible mucosa, lacrimation, hypersalivation, vomiting, diarrhea, incontinence and change in respiratory conditions were expressed or not was observed. Observation was performed before administration, and 30 minutes, 1 hour, 2 hours and 3 hours after each administration during the continuous 7 days in which the drug was administered every day. Each evaluation was performed by rating in 4 ranks as follows: Respiratory conditions were ranked into: no abnormality observed (Grade 0); accelerated respiration (Grade 1); hypopnea (Grade 2); and dyspnea (Grade 3). Ataxia was ranked into: no abnormality observed (Grade 0); slight (Grade 1); moderate (Grade 2); and abasia (Grade 3). Sedation (response to verbal contact) and lying (response to verbal contact) were ranked into: no abnormality observed (Grade 0); slight (Grade 1); moderate (Grade 2); and no response (Grade 3). Evaluations of lacrimation, hypersalivation, vomiting, diarrhea and incontinence were ranked into: no abnormality observed (Grade 0); slight (Grade 1); moderate (Grade 2); and severe (Grade 3).
In each administration series, the same cat was used in each administration series as the subject cat for the correctness of the evaluation of the test drug. To eliminate the influence of the test drug of the previous series, wash out period of 2 weeks were given after the termination of the respective series. In the beraprost sodium administration series and the placebo administration series, the solution-containing capsules prepared in Example 2 were used. Administration was performed orally at fasting twice a day at intervals of 12 hours for continuous 7 days.
Statistical analysis was carried out using a statistical software Stat View J-4.5 (Abacus Concepts). Since the parameter values before and after the administration to the same individual are compared, significant test was carried out by the paired t-test. In any of the cases, when the significance level was less than 5%, it was judged as significant.

[3] = test system: cats with chronic renal failure; test: Clinical score of uremic symptoms (activity + appetite) in cats with chronic renal failure; format: in vivo, cat; conditions: for clinical total score (full points 5): after one month
Experimental: Testing methods for the patients showing uremia caused by chronic renal failure, employed in Example 4 or later, will now be described. The criteria and evaluation items for the cats and dogs with chronic renal failure are as follows: Diagnosis of uremia and chronic renal failure were performed totally taking clinical findings (including findings of uremia) and the results of the blood test, blood biochemical analysis and urinalysis into consideration. As the clinical findings of uremia, existence and degree of polydipsia and diuresis, dehydration, anorexia, weight loss, vomiting symptom and state of dehydration were observed. Existence of chronic renal failure was judged based on the serum Cre value as generally employed. As reference data for grasping the degree of progress of chronic renal failure, BUN value was also monitored.
This pilot clinical test was performed after obtaining informed consent of the owners of the cats (clients) before the start of the test, wherein the clients received explanations about the fact that beraprost sodium had already been approved as a drug for human chronic artery obstruction and had already been marketed, and about the safety thereof. Further, giving first priority to the benefit of the patients and clients, conventional therapeutic methods were also combined appropriately for the individuals with progressed renal failure. Examples of the concomitant drugs employed include synthetic active carbons such as Covalzin, Kremezin and Nefguard; calcium preparations such as calcium carbonate; formula meals such as k/d and low-protein diets; and infusion solutions. However, in cases where there was a rational reason and consent by the owner was obtained, beraprost sodium alone was administered even to the individual with progressed renal failure. On the other hand, drugs thought to influence on the action of beraprost sodium, such as vasodilators (e.g., enalapril), diuretic (e.g., furosemide), drugs which influence on renal blood flow (e.g., dopamine) and steroids (e.g., prednisolone) were not used.
Administration of beraprost sodium was conducted by orally administering the tablet with a content of 150 μg/tablet (Example 1) twice a day (300 μg/head/day). The administration was conducted every day and continued basically for 6 months, and in cases where the owner desired, the administration was continued even after the test period. The Examples of the present invention include both cases where the dosing period was less than 6 months and more than 6 months.
Evaluation of degree of improvement of the uremic symptoms was carried out as follows: From the clinical symptoms related to uremia, activity and appetite, which are unlikely to be overlooked and which can be observed universally from before to after the test period, were selected. […] The evaluation was carried out based on the total points (full points were 5 points). Thus, a higher point indicates more improvements in the clinical symptoms.

[4] = test system: cats with chronic renal failure; test: as above; format: in vivo, cat; conditions: Case-G; 40 μg/head/BID; Day 14, kept up to Day 56; 3 points before
healthy cats [5] = test: Blood test and blood chemical analysis in healthy cats; format: in vivo, cat; conditions: after 7 days BID at 10-100 μg/kg oral
Experimental: as §1
Blood test and blood chemical analysis were carried out as follows: Blood was collected before administration of beraprost sodium and on the next day of the termination of continuous administration for 7 days at each dose (the continuous administration of one test compound for 7 days is hereinafter referred to as “1 series”) at fasting, and analyzed. Inspection items in the blood test were RBC, WBC, PCV, Hb and Plat, and those in the blood chemical analysis were AST, ALT, T.P, BUN, Cre, Na, K and Cl.
In each administration series, the same cat was used in each administration series as the subject cat for the correctness of the evaluation of the test drug. To eliminate the influence of the test drug of the previous series, wash out period of 2 weeks were given after the termination of the respective series. […]

In the case of `CC#CC[C@@H](C)[C@H](O)/C=C/[C@@H]1[C@H]2c3cccc(CCCC(=O)[O-])c3O[C@H]2C[C@H]1O.[Na+]` (mixture of isomers) [beraprost sodium, Sodium rac-(1R,2R,3aS,8bS)-2,3,3a,8b-tetrahydro-2-hydroxy-1-[(E)-(3S,4RS)-3-hydroxy-4-methyloct-1-en-6-ynyl]-1H-cyclopenta[b][1]benzofuran-5-butanoate], the “onset of glomerulonephritis (urinary protein excretion, glomerulus tissue image)” value [1] is listed as “prevented”, the “adverse events (clinical symptoms)” value (healthy cats [2]; 10 μg/kg/BID oral, 7 days) is listed as “not observed at all” and the “adverse events (clinical symptoms)” value (healthy cats [2]; 30 μg/kg/BID oral, 7 days) is listed as “not observed at all”. For the same compound, the “grade of adverse events (diarrhea, vomiting, sedation)” value (healthy cats [2]; 70 μg/kg/BID oral, 7 days) was “Grade 1”, the “cases with adverse events such as diarrhea, vomiting and sedation” value (healthy cats [2]; 70 μg/kg/BID oral, 7 days, sporadic, 2 to 6 days after administration) was 2/5 and the “time of occurrence of adverse events after the administration” value (healthy cats [2]; 100 μg/kg/BID oral) was no more than 2 h. For the same compound, the “grade of adverse events (vomiting, diarrhea, sedation)” value (healthy cats [2]; 100 μg/kg/BID oral, 7 days) was “Grade 2”, the “cats with vomiting, diarrhea and sedation” value (healthy cats [2]; 100 μg/kg/BID oral, 7 days, from Day 2, frequent) was “all cats” and the “reversibility of adverse events” value (healthy cats [2]; 70 and 100 μg/kg/BID series, after 7 days) was “disappeared by the next day of the final administration”. For the same compound, the “clinical score (full points 5)” value ([3]; Case-A, male cat 5 y, 150 μg tablet oral BID alone, first month) was 4, the “clinical score (full points 5)” value ([3]; Case-A, 150 μg oral BID alone, second month, maintained for 6 months) was 5 and the “clinical conditions / uremic symptoms at follow up” value ([3]; Case-A, 6 months after termination (12 months after start)) was “not observed at all; also recorded: very good”. For the same compound, the “outcome of uremia and renal failure” value ([3]; Case-A, 6 months of 150 μg oral BID alone) was “completely cured”, the “differences from normal cats in clinical observations and biochemical markers” value ([3]; Case-A, end of the 6-month dosing period) was “no differences” and the “total score of the clinical symptoms (full points 5)” value ([3]; Case-B, male cat 4 y, 150 μg oral BID alone, 1 month after start, 3 points before) was 5 points. For the same compound, the clinical symptoms ([3]; Case-B, first to second month) was “slight amelioration”, the “clinical score (full points 5)” value ([3]; Case-B, from the fourth month) was 5 points and the “clinical score (full points 5)” value ([3]; Case-C, female cat 16 y, 150 μg oral BID alone, second week, 2 points before) was 4 points. For the same compound, the “clinical score (full points 5)” value ([3]; Case-C, after 2.5 months) was 5 points, the “clinical score (full points 5)” value ([3]; Case-C, after the sixth week) was 4 points and the “clinical score (full points 5)” value ([3]; Case-C, sixth week) was 2 points. The “clinical total score (full points 5)” value ([3]; Case-D, male Siamese cat 17 y, 150 μg oral BID alone, 2 points before) was 5 points, the “clinical total score (full points 5)” value ([3]; Case-E, 150 μg oral BID plus Covalzin 200 mg/BID, calcium preparation, formula meal, infusion, 0 point before) was 4 points and the dehydration ([3]; Case-E, combination therapy, first about 3 months) was “completely disappeared”. The “clinical score (full points 5)” value ([3]; Case-E, combination therapy, for about 3 months) was 5 points, the “clinical score (full points 5)” value ([3]; Case-E, combination without Covalzin from fourth month, for about 2 months) was 3 points and the “clinical score (full points 5)” value ([3]; Case-E, combination without Covalzin, 7th to 8th month) was 5 points. The “clinical score (full points 5)” value ([3]; Case-F, 150 μg oral BID added to insulin, active carbon, calcium carbonate, first month, continues 10 months) was 5 points, the uremic symptoms ([3]; Case-F, combination therapy, after start of beraprost sodium) was “disappeared; also recorded: quickly improved” and the “appetite and desire for water” value ([3]; cats with renal failure, overall) was “clearly improved”. For the same compound, the “clinical score (full points 5)” value [4] was 5 points and the “blood cell count, electrolytes, renal function and liver function” value (healthy cats [5]) was “no adverse change was observed”.
